Source: patent publication US7423157B2, “Substituted benzimidazoles and their use for inducing apoptosis” (Basilea Pharmaceutica AG, priority 2004, dated 2008)

Columns and labels:
[1] = tested on: H460; test: Hoechst 33342 nuclear staining, H460; type: cell-based, human; conditions: H460, 48 h
Method: (§1) This assay is performed in 96 well tissue culture plates. Appropriate number of cells (adherent cells: 3-5*10^3, suspension cells: 8-10*10^3) are being seeded out in 80 μl complete medium. Adherent cells are incubated for 24 h for proper spreading out before addition of test compounds while suspension cells are immediately treated with test compounds after seeding out. The test compounds are added in 20 μl complete medium containing max 5% DMSO. The final compound concentrations in the assays are 10 μM, 3 μM, 1 μM and 0.3 μM, respectively. […] The assay plates are then further incubated for 30 minutes and subsequently analyzed with a standard inverted fluorescence microscope.
(§2) The readout allows the determination of the fraction of apoptotic nuclei as well as other morphological criteria specific for apoptosis as a function of the treatment. The following scores are used: 0 relating to no activity, 1 relating to weak activity comprising less than 50% of the cells and score 2 relating to strong activity comprising more than 50% of the cells.

[2] = tested on: HeLa; test: MTS proliferation assay, HeLa; type: cell-based, human; conditions: Homo sapiens, 72 h incubation
Method: (§3) The assay is performed in 96 well tissue culture plates. The cells (range: 1.5*10^3-10^4) are seeded out in 80 μl complete medium 24 h prior to compound treatment. The test compounds are added in 20 μl complete medium containing max 5% DMSO. The final compound concentrations in the assays are 10 μM, 3 μM, 1 μM and 0.3 μM, respectively. The assay plates are incubated for 72 h at culture conditions. The MTS reagent is prepared according to the manufacturer's protocol (Promega G1111). 20 μl MTS reagent are added to each well, the assay plates are quickly spun and incubated for another 3 h at culture conditions. Subsequently, the plates are shortly shaked and absorption measured with a microplate-reader at 492 nm.

[3] = tested on: Jurkat; test: MTS proliferation assay, Jurkat; type: cell-based, human; conditions: Homo sapiens, 72 h incubation
Method: as §3

[4] = tested on: PBLs; test: Hoechst 33342 nuclear staining, PBLs; type: cell-based; design: key: 0 = no activity, 1 = weak (<50% of cells), 2 = strong (>50% of cells); conditions: 48 h
Method: as §1, §2

[5] = tested on: Jurkat; test: Hoechst 33342 nuclear staining, Jurkat; type: cell-based, human; conditions: 48 h
Method: as §1, §2

[6] = tested on: HeLa; test: Hoechst 33342 nuclear staining, HeLa; type: cell-based, human; conditions: 48 h
Method: as §1, §2

[7] = tested on: Jily; test: Hoechst 33342 nuclear staining, Jily; type: cell-based; conditions: 48 h
Method: as §1, §2

[8] = tested on: MRC5; test: Hoechst 33342 nuclear staining, MRC5; type: cell-based; design: key: 0 = no activity, 1 = weak (<50% of cells), 2 = strong (>50% of cells); conditions: MRC5, 48 h
Method: as §1, §2

Row | Structure (SMILES) | Hoechst 33342 nuclear staining score ([1]; conc. 0.3 (μM)) | Hoechst 33342 nuclear staining score ([1]; conc. 1 (μM)) | Hoechst 33342 nuclear staining score ([1]; conc. 3 (μM)) | Hoechst 33342 nuclear staining score ([1]; conc. 10 (μM)) | Hoechst 33342 nuclear staining score ([4]; conc. 0.3 (μM)) | Hoechst 33342 nuclear staining score ([4]; conc. 1 (μM)) | Hoechst 33342 nuclear staining score ([4]; conc. 3 (μM)) | Hoechst 33342 nuclear staining score ([4]; conc. 10 (μM)) | Hoechst 33342 nuclear staining score ([5]; conc. 0.3 (μM)) | Hoechst 33342 nuclear staining score ([5]; conc. 1 (μM)) | Hoechst 33342 nuclear staining score ([5]; conc. 3 (μM)) | Hoechst 33342 nuclear staining score ([5]; conc. 10 (μM)) | Hoechst 33342 nuclear staining score ([6]; conc. 0.3 (μM)) | Hoechst 33342 nuclear staining score ([6]; conc. 1 (μM)) | Hoechst 33342 nuclear staining score ([6]; conc. 3 (μM)) | Hoechst 33342 nuclear staining score ([6]; conc. 10 (μM)) | Hoechst 33342 nuclear staining score ([7]; conc. 0.3 (μM)) | Hoechst 33342 nuclear staining score ([7]; conc. 1 (μM)) | Hoechst 33342 nuclear staining score ([7]; conc. 3 (μM)) | Hoechst 33342 nuclear staining score ([7]; conc. 10 (μM)) | further results
1 | Cc1ccc(C(=O)Cn2c(-n3ncnc3N)nc3ccccc32)cc1C [Example 1, 3-Amino-2-(1-[3,4-dimethylphenylcarbonylmethyl]benzimidazol-2-yl)-1,2,4-triazole] | 2 (score 2 relating to strong activity comprising more than 50% of the cells) | 2 (score 2 relating to strong activity comprising more than 50% of the cells) | 2 (score 2 relating to strong activity comprising more than 50% of the cells) | 2 (score 2 relating to strong activity comprising more than 50% of the cells) | 0 | 0 | 0 | 0 | 2 (score 2 relating to strong activity comprising more than 50% of the cells) | 2 (score 2 relating to strong activity comprising more than 50% of the cells) | 2 (score 2 relating to strong activity comprising more than 50% of the cells) | 2 (score 2 relating to strong activity comprising more than 50% of the cells) | 2 (score 2 relating to strong activity comprising more than 50% of the cells) | 2 (score 2 relating to strong activity comprising more than 50% of the cells) | 2 (score 2 relating to strong activity comprising more than 50% of the cells) | 2 (score 2 relating to strong activity comprising more than 50% of the cells) | 2 (score 2 relating to strong activity comprising more than 50% of the cells) | 2 (score 2 relating to strong activity comprising more than 50% of the cells) | 2 (score 2 relating to strong activity comprising more than 50% of the cells) | 2 (score 2 relating to strong activity comprising more than 50% of the cells) | IC50 [2]: < 100 nM; IC50 [3]: < 100 nM; Hoechst 33342 nuclear staining score ([8]; conc. 0.3 (μM)): 1 (1 relating to weak activity comprising less than 50% of the cells); Hoechst 33342 nuclear staining score ([8]; conc. 1 (μM)): 2 (score 2 relating to strong activity comprising more than 50% of the cells); Hoechst 33342 nuclear staining score ([8]; conc. 3 (μM)): 2 (score 2 relating to strong activity comprising more than 50% of the cells); Hoechst 33342 nuclear staining score ([8]; conc. 10 (μM)): 2 (score 2 relating to strong activity comprising more than 50% of the cells)
2 | COc1ccc(C(=O)Cn2c(-n3ccc(N)n3)nc3ccccc32)cc1 [Example 2, 5-Amino-2-(1-[4-methoxyphenylcarbonylmethyl]benzimidazol-2-yl)-pyrazole] | 0 | 0 | 2 (score 2 relating to strong activity comprising more than 50% of the cells) | 2 (score 2 relating to strong activity comprising more than 50% of the cells) | 0 | 0 | 0 | 2 (score 2 relating to strong activity comprising more than 50% of the cells) | 0 | 0 | 2 (score 2 relating to strong activity comprising more than 50% of the cells) | 2 (score 2 relating to strong activity comprising more than 50% of the cells) | 0 | 0 | 2 (score 2 relating to strong activity comprising more than 50% of the cells) | 2 (score 2 relating to strong activity comprising more than 50% of the cells) | 0 | 2 (score 2 relating to strong activity comprising more than 50% of the cells) | 2 (score 2 relating to strong activity comprising more than 50% of the cells) | 2 (score 2 relating to strong activity comprising more than 50% of the cells) | Hoechst 33342 nuclear staining score ([8]; conc. 0.3 (μM)): 0; Hoechst 33342 nuclear staining score ([8]; conc. 1 (μM)): 0; Hoechst 33342 nuclear staining score ([8]; conc. 3 (μM)): 0; Hoechst 33342 nuclear staining score ([8]; conc. 10 (μM)): 0
3 | CS(=O)(=O)O.Nc1ccc(C(=O)Cn2c(-n3ncnc3N)nc3ccccc32)cn1 [Example 15] | 2 (score 2 relating to strong activity comprising more than 50% of the cells) | 2 (score 2 relating to strong activity comprising more than 50% of the cells) | 2 (score 2 relating to strong activity comprising more than 50% of the cells) | 2 (score 2 relating to strong activity comprising more than 50% of the cells) | 0 | 0 | 0 | 0 | 2 (score 2 relating to strong activity comprising more than 50% of the cells) | 2 (score 2 relating to strong activity comprising more than 50% of the cells) | 2 (score 2 relating to strong activity comprising more than 50% of the cells) | 2 (score 2 relating to strong activity comprising more than 50% of the cells) | 2 (score 2 relating to strong activity comprising more than 50% of the cells) | 2 (score 2 relating to strong activity comprising more than 50% of the cells) | 2 (score 2 relating to strong activity comprising more than 50% of the cells) | 2 (score 2 relating to strong activity comprising more than 50% of the cells) | 2 (score 2 relating to strong activity comprising more than 50% of the cells) | 2 (score 2 relating to strong activity comprising more than 50% of the cells) | 2 (score 2 relating to strong activity comprising more than 50% of the cells) | 2 (score 2 relating to strong activity comprising more than 50% of the cells) | Hoechst 33342 nuclear staining score ([8]; conc. 0.3 (μM)): 1 (1 relating to weak activity comprising less than 50% of the cells); Hoechst 33342 nuclear staining score ([8]; conc. 1 (μM)): 1 (1 relating to weak activity comprising less than 50% of the cells); Hoechst 33342 nuclear staining score ([8]; conc. 3 (μM)): 1 (1 relating to weak activity comprising less than 50% of the cells); Hoechst 33342 nuclear staining score ([8]; conc. 10 (μM)): 1 (1 relating to weak activity comprising less than 50% of the cells)
